Results published in patent US9486438B2, “Combination dosage forms and therapies for supporting bone health” (Primus Pharmaceuticals Inc., priority 2008, dated 2016).

Tests used:
[1] = test system: younger postmenopausal women; settings: 10 000 U vitamin D3/wk added to calcium 1000 mg/d, postmenopausal women (age: 56 y); Cooper et al. 2003; cited from earlier work
[2] = vitamin D3 added to estrogen therapy; Tuppurainen et al. 1998; cited from earlier work
ovariectomized rats [3] = assay: Genistein dose-ranging preclinical study: serum markers of bone resorption and formation; format: in vivo, Sprague-Dawley rats
Experimental: (§1) This study was carried out to evaluate the effects of different human dose equivalents of genistein (aglycone) alone, or in combination with supplemental calcium carbonate and vitamin D3, on bone density, markers, and histology in ovariectomized rats. Forty-eight three month old ovariectomized (OVX) female Sprague-Dawley rats were purchased from Charles River Laboratories. Animals were maintained in plastic cages under standard environmental conditions with water and standard rat chow available ad libitum at the Animal Facility of the Department of Clinical and Experimental Medicine and Pharmacology of the University of Messina, Messina, Italy. After 1 week of acclimation, animals were randomly assigned to 12 different treatment groups that lasted for 6 weeks as summarized in Table 1 below:
(§2) Genistein doses were converted into human equivalents by using the following formula: (human dose in mg/m^2)=(kin)×(dose in mg/kg) where human m^2 for a person of 60 kg (considered as a medium weight for our cohort of post-menopausal women) is 1.62 and km is the conversion factor (for a rat of 250 gr is 7.0) {Freireich, 1966 4611/id. Genistein was diluted in a 1:1 solution of 0.9% NaCl and DMSO and administered by intraperitoneal injection. Animals received 50% supplementation of their normal daily intake of calcium and vitamin D3 (50.4 IU/kg/day) by oral gavage, which equated to 366.52 mg/kg/day of calcium and 50.4 IU/kg/day of vitamin D3.
(§3) Bone mineral density of the right femur was measured using dual-energy X-ray absorptiometry. The coefficient of variation for femur BMD was 1.16%. Animals were maintained under controlled conditions for 6 weeks, at the end of the experiments were sacrificed under general anaesthesia (with chloral hydrate 400 mg/kg/ip) after blood collection by cardiac puncture. Blood was centrifuged and serum stored immediately at −20° C. for analysis. Serum was used to quantify markers of bone resorption [soluble receptor activator of nuclear factor kappaB ligand (sRANKL) and C-terminal telopeptide (CTX)] and formation [bone-specific alkaline phosphatase and osteoprotegerin (OPG)].

ovariectomized rats [4] = assay: Genistein dose-ranging preclinical study: bone mineral density of the right femur by dual-energy X-ray absorptiometry; format: in vivo, Sprague-Dawley rats
Experimental: as §1, §2, §3

[5] = test system: ovariectomized (OVX) female Sprague-Dawley rats; assay: Genistein bone architecture study: femoral head histology; format: in vivo; settings: human equivalent dose of 54 mg/day (4.76 mg/kg/day i.p.), photomicrographs, preliminary evidence, to approximately that of non-ovariectomized animal
Description: Three month old ovariectomized (OVX) female Sprague-Dawley rats were purchased from Charles River Laboratories. Animals were maintained in plastic cages under standard environmental conditions with water and standard rat chow available ad libitum at the Animal Facility of the Department of Clinical and Experimental Medicine and Pharmacology of the University of Messina, Messina, Italy.
Dose Calculation—Genistein doses were converted into animal equivalents by using the following formula: (human dose in mg/m^2)=(km)×(dose in mg/kg) where human m^2 for a person of 60 kg (considered as a medium weight for our cohort of post-menopausal women) is 1.62 and km is the conversion factor (for a rat of 250 gr is 7.0) {Freireich, 1966 4611/id}. Therefore, animals given the human equivalent of 54 mg/day were administered 4.76 mg/kg/day. Genistein was diluted in a 1:1 solution of 0.9% NaCl and DMSO and administered by intraperitoneal injection in a volume of […].
Histology—Rat femora decalcified in 4% EDTA for approximately 1 week and then processed for routine paraffin embedding following standard procedures. Sections were cut at the femoral head just proximal to the coxofemoral joint and stained with hematoxylin and eosin.

post-menopausal women = settings: administered for one year to post-menopausal women; Morabito et al. 2002; cited from earlier work
[6] = Ensrud et al., J Bone Miner Res. 2004; cited from earlier work
[7] = serum, OVX rats, genistein 0-1000 mg/day human dose equivalents i.p., 6 weeks, p<0.001, FIG. 1

Structure (SMILES): C=C1CC[C@H](O)C/C1=C/C=C1\CCC[C@]2(C)[C@@H]([C@H](C)CCCC(C)C)CC[C@@H]12 [vitamin D3]
- bone mineral density beyond calcium supplementation alone [1]: did not confer benefits
- lumbar or femoral bone mineral density changes [2]: no statistically significant improvement

Structure (SMILES): O=c1c(-c2ccc(O)cc2)coc2cc(O)cc(O)c12 [genistein, 4′,5,7-trihydroxyisoflavone]
- RANKL/OPG ratio (ovariectomized rats [3]; OVX rats, genistein i.p., 6 weeks, p<0.001, FIG. 3): decreased
- dose at which the genistein effect reached a plateau (ovariectomized rats [3]; bone markers, BMD and RANKL/OPG ratio, no further significant improvement beyond this dose by post-hoc testing): 54 mg human dose equivalent
- Bone specific alkaline phosphatase (marker of bone formation) (ovariectomized rats [3]; [7]): dose-dependently increased
- CTX (marker of bone resorption) (ovariectomized rats [3]; [7]): decreased
- osteoprotegerin (marker of bone formation) (ovariectomized rats [3]; [7]): dose-dependently increased
- sRANKL (marker of bone resorption) (ovariectomized rats [3]; [7]): decreased
- BMD when supplemented with vitamin D3 and calcium (ovariectomized rats [4]; equivalent of 54 mg genistein per day, only group showing it): statistically significant preservation
- bone mineral density (ovariectomized rats [4]; femur, OVX rats, genistein i.p., 6 weeks, p<0.001, FIG. 2): increases
- BMD when supplemented with vitamin D3 or calcium (ovariectomized rats [4]; genistein 27, 200, 500 and 1,000 mg human equivalent doses, even worsened in some instances): no improvement
- BMD over 6 weeks in calcium and vitamin D3-replete rats (ovariectomized rats [4]; genistein at 54 mg/day and above (human dose equivalents)): significant increases
- trabecular architecture (trabecular rod number and thickness) of femoral head [5]: restores trabecular architecture
- bone mineral density (post-menopausal women): improve
- several biochemical markers of bone health (post-menopausal women): improve

Structure (SMILES): NCCCC(O)(P(=O)(O)O)P(=O)(O)O [alendronate]
- reducing fractures beyond 5 years of treatment [6]: no benefit
